Experimental data published in ChEMBL document CHEMBL3259565 (ACS Med Chem Lett, 2014).
The source made the active and inactive calls. The calls are words filed in the database; no cut-off is given here.

Tests used:
[1] = target: T1, Histone-lysine N-methyltransferase EHMT2 (Homo sapiens, UniProt Q96KQ7); assay: Inhibition of methyltransferase activity of EHMT2 (unknown origin)-mediated dimethylation of a biotinylated histone H3 peptide at lysine-9 by FRET-based LANCE ultra G9a assay
T1 sequence (Q96KQ7 whole entry): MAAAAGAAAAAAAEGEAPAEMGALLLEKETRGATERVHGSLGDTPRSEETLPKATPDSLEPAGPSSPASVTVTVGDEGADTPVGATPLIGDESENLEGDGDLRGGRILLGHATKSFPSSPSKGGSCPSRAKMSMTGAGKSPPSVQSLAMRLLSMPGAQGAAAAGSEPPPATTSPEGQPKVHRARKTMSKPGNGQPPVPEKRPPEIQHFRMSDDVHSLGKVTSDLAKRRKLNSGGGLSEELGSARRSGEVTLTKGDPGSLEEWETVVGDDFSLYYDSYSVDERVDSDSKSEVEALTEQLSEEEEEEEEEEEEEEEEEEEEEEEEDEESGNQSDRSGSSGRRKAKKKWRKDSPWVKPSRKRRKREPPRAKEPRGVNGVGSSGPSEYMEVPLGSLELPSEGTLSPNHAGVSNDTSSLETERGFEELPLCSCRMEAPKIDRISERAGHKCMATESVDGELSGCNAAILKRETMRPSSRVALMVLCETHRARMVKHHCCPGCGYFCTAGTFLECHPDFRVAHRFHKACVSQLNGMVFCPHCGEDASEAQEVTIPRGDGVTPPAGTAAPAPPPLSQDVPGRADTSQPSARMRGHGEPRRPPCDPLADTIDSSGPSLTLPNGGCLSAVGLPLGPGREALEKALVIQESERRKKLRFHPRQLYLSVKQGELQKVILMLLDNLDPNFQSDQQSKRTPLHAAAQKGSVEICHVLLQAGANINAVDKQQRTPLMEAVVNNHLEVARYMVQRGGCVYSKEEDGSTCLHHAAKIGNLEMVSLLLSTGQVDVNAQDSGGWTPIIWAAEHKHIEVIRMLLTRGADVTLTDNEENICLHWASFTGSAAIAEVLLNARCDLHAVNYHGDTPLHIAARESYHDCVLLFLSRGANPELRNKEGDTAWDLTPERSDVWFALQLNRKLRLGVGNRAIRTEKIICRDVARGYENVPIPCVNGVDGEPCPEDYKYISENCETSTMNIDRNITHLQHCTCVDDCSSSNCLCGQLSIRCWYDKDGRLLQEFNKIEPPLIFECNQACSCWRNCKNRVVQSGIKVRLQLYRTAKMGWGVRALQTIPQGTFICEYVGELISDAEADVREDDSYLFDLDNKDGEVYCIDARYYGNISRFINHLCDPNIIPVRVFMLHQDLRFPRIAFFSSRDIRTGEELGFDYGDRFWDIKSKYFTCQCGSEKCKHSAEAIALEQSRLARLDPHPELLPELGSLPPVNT

[2] = target: T2, Histone-lysine N-methyltransferase SETD7 (Homo sapiens) (UniProt Q8WTS6); assay: Inhibition of SET7/9 (unknown origin) at 200 uM
T2 sequence (whole entry): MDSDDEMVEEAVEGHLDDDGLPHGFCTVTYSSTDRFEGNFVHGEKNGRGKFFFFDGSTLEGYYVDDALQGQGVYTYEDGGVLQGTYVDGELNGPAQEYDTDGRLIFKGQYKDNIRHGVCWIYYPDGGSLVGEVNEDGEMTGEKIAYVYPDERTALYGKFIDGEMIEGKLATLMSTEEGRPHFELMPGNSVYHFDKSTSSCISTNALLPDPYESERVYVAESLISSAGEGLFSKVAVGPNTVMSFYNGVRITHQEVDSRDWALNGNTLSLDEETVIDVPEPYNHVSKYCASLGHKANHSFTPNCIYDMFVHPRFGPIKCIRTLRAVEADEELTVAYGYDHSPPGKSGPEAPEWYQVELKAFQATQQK

[3] = target: T3, Histone-lysine N-methyltransferase EHMT1 (Homo sapiens) (UniProt Q9H9B1); assay: Inhibition of methyltransferase activity of EHMT1 (unknown origin)-mediated dimethylation of a biotinylated histone H3 peptide at lysine-9 at 100 uM by FRET-based LANCE ultra G9a assay
T3 sequence (whole entry): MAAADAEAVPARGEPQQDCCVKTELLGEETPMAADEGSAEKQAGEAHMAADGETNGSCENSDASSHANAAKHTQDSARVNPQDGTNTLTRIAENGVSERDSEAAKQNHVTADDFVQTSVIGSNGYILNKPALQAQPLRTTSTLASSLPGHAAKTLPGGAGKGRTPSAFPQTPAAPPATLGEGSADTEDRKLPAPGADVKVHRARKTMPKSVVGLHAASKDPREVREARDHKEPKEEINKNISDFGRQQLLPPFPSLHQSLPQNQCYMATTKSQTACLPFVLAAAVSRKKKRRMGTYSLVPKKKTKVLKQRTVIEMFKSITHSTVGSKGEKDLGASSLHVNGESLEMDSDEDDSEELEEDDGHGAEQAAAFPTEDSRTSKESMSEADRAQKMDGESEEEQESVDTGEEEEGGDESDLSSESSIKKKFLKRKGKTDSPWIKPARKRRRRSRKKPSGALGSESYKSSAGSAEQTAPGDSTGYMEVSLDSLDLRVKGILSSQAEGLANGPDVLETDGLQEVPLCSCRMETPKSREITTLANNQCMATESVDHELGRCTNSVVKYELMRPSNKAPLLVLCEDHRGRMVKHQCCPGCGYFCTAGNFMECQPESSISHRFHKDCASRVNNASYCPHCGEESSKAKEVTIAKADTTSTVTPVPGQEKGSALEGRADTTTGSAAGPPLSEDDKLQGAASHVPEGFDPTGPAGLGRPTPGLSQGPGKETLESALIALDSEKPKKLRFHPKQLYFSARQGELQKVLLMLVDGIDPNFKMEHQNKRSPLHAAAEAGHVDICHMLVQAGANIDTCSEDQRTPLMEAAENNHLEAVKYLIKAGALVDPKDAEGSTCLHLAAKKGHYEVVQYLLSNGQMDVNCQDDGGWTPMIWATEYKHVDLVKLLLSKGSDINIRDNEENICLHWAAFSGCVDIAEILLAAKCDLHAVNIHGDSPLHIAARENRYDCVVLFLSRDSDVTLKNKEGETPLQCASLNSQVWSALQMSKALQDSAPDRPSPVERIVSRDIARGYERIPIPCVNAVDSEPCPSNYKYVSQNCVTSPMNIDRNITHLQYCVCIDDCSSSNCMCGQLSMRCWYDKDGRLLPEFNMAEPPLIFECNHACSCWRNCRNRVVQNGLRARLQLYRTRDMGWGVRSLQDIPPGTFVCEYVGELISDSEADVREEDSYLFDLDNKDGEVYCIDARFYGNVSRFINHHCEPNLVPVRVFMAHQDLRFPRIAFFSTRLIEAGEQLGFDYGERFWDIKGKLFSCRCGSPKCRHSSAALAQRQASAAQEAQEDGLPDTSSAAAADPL

[4] = target: T4, Histone-lysine N-methyltransferase EHMT2 (Homo sapiens) (UniProt Q96KQ7); assay: Non-competitive inhibition of methyltransferase activity of EHMT2 (unknown origin)
T4 sequence (whole entry): T1 sequence (Q96KQ7 whole entry)

[5] = target: T3, Histone-lysine N-methyltransferase EHMT1 (Homo sapiens); assay: Non-competitive inhibition of methyltransferase activity of EHMT1 (unknown origin)
[6] = target: Protein arginine N-methyltransferase 1 (Homo sapiens) (UniProt Q99873); assay: Inhibition of PRMT1 (unknown origin) at 200 uM
[7] = target: T5, Histone-lysine N-methyltransferase EHMT1 (Homo sapiens, UniProt Q9H9B1); assay: Inhibition of methyltransferase activity of EHMT1 (unknown origin)-mediated dimethylation of a biotinylated histone H3 peptide at lysine-9 by FRET-based LANCE ultra G9a assay
T5 sequence (Q9H9B1 whole entry): T3 sequence (whole entry)

[8] = target: T6, DNA (cytosine-5)-methyltransferase 1 (Homo sapiens, UniProt P26358); assay: Inhibition of DNMT1 (unknown origin)
[9] = target: T6, DNA (cytosine-5)-methyltransferase 1; assay: Inhibition of DNMT1 (unknown origin) at 200 uM

Chain of Protein arginine N-methyltransferase 1 (Homo sapiens) (Q99873 whole entry, looked up): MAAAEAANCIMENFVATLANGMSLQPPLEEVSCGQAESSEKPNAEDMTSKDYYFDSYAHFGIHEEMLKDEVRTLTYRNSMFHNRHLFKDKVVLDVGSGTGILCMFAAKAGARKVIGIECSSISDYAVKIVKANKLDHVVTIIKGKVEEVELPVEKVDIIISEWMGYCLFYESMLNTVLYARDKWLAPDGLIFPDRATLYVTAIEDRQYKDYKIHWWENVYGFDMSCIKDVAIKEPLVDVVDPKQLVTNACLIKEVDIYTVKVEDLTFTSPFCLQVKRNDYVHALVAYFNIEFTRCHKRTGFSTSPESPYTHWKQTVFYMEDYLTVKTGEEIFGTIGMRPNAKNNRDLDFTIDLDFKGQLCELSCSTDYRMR
T6 sequence (P26358 whole entry): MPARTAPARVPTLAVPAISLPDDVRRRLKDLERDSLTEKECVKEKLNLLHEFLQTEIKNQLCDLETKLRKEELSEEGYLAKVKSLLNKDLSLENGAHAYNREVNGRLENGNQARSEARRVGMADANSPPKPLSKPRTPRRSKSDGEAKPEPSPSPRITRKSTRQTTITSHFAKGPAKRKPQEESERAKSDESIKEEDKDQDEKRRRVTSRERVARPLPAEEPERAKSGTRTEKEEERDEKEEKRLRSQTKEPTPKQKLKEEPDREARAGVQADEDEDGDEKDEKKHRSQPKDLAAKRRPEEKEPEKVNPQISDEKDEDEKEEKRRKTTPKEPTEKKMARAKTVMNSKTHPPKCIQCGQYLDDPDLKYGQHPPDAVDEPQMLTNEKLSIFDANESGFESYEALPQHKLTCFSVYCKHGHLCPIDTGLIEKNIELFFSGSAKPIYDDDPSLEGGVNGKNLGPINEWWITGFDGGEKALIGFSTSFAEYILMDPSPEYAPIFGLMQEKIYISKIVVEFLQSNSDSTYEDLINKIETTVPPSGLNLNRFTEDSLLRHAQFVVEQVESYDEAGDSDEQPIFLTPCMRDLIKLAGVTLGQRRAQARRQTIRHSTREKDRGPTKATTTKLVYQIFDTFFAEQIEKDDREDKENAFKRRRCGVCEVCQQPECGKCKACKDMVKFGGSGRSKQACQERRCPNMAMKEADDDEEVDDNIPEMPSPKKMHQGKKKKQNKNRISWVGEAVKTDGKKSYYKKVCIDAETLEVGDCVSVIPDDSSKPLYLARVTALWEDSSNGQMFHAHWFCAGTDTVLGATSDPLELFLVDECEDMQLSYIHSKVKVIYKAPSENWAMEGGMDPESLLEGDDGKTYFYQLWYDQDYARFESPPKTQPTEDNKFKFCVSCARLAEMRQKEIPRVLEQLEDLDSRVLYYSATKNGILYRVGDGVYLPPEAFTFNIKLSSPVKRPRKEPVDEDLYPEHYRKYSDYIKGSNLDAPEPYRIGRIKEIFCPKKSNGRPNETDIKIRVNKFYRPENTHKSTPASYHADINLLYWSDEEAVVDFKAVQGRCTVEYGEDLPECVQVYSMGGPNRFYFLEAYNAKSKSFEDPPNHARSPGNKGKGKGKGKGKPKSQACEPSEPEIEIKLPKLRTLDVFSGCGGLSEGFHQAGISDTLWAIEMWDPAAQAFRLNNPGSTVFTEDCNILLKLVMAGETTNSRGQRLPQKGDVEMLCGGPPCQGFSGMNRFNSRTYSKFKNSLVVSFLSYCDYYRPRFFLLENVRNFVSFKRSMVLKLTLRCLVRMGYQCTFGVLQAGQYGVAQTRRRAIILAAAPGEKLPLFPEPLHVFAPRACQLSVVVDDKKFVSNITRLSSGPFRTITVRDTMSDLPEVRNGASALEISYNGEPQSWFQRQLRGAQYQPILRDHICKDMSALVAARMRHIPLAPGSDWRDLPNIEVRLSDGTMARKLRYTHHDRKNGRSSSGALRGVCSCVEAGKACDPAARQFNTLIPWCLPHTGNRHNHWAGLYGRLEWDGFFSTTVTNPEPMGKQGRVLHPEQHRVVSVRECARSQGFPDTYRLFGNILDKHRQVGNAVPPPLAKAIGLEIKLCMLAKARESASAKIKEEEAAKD

IC50 [1] [µM] | inhibition [2] | inhibition [3] [%] | inhibition [4] | inhibition [5] | inhibition [6] | IC50 [7] [µM] | IC50 [8] [µM] | inhibition [9] | SMILES
1.6 | inactive | > 40 | Active | Active | inactive | 1.5 | 179 | – | Nc1ncnc2c1ncn2[C@@H]1O[C@H](CC(N)CC2CCCCC2)[C@@H](O)[C@H]1O (stereo partly drawn)
157 | – | > 40 | – | – | – | 147 | – | – | COc1ccc(CC(N)C[C@H]2O[C@@H](n3cnc4c(N)ncnc43)[C@H](O)[C@@H]2O)cc1OC (stereo partly drawn)
190 | – | > 40 | – | – | – | 235 | – | – | Nc1ncnc2c1ncn2[C@@H]1O[C@H](CCCc2ccccc2)[C@@H](O)[C@H]1O
– | – | – | – | – | – | 513 | – | – | Nc1ncnc2c1ncn2[C@@H]1O[C@H](C[C@@H](N)CC[C@H](N)C(=O)O)[C@@H](O)[C@H]1O [SINEFUNGIN]
103 | inactive | > 40 | Active | Active | inactive | 87 | – | inactive | CCCCC[C@H]1O[C@@H](n2cnc3c(N)ncnc32)[C@H](O)[C@@H]1O
